Experiments:
[1] = tested on: Rattus norvegicus; assay: In vivo percentage of prodrug (Compound) reconversion to PD-154075 from (male Wistar rat) plasma after intravenous administration of the 5.3 mg/mL compound; type: functional
[2] = Solubility in water was determined; type: physicochemical
[3] = tested on: Rattus norvegicus; assay: In vivo percentage of prodrug (Compound) reconversion to PD-154075 from (male Wistar rat) plasma after intravenous administration of the 5 mg/ml compound; type: functional
[4] = tested on: Rattus norvegicus; assay: In vivo percentage of prodrug (Compound) reconversion to PD-154075 from (male Wistar rat) plasma after intravenous administration of the 4.6 mg/ml compound; type: functional
[5] = tested on: Rattus norvegicus; assay: In vivo percentage of prodrug (Compound) reconversion to PD-154075 from (male Wistar rat) plasma after intravenous administration of the 5.7 mg/ml compound; type: functional

solubility [2] [mg/mL] | SMILES | Prodrug reconversion [1] [%] | Prodrug reconversion [3] [%] | Prodrug reconversion [4] [%] | Prodrug reconversion [5] [%]
< 0.001 | CC(NC(=O)[C@@](C)(Cc1c[nH]c2ccccc12)NC(=O)OCc1cc2ccccc2o1)c1ccccc1 (single isomer, unassigned) |  |  |  | 
76 | C[C@@H](NC(=O)[C@@](C)(Cc1cn(P(=O)([O-])[O-])c2ccccc12)NC(=O)OCc1cc2ccccc2o1)c1ccccc1.[Na+].[Na+] |  |  |  | 11.7

The next lines start with the molecule.

SMILES | solubility [2] [mg/mL] | Prodrug reconversion [1] [%] | Prodrug reconversion [3] [%] | Prodrug reconversion [4] [%] | Prodrug reconversion [5] [%]
C[C@@H](NC(=O)[C@@](C)(Cc1cn(C(=O)OCOC(=O)c2ccc(COP(=O)([O-])[O-])cc2)c2ccccc12)NC(=O)OCc1cc2ccccc2o1)c1ccccc1.[Na+].[Na+] | 58 | 59.5 |  |  | 
Cc1cc(C)c(C(C)(C)CC(=O)n2cc(C[C@@](C)(NC(=O)OCc3cc4ccccc4o3)C(=O)N[C@H](C)c3ccccc3)c3ccccc32)c(OP(=O)([O-])[O-])c1.[Na+].[Na+] | 31 |  | 9.35 |  | 
C[C@@H](NC(=O)[C@@](C)(Cc1cn(C(=O)c2ccccc2COP(=O)([O-])[O-])c2ccccc12)NC(=O)OCc1cc2ccccc2o1)c1ccccc1.[Na+].[Na+] | 55 |  |  | 19.9 | 
